Test results taken from US7452908B2, “Amide derivatives” (Banyu Pharmaceutical Co., Ltd., priority 1999, dated 2008).
pKi: −log10 of the molar value.

Assays:
[1] = molecular target: T1, human m2 muscarinic acetylcholine receptor expressed in CHO cells (Homo sapiens, UniProt P08172); test: Inhibition of [3H]-N-methylscopolamine binding to muscarinic m2 receptor; conditions: 0.2 nM [3H]-N-methylscopolamine
T1 construct: purchased Receptor Biology, Inc; host or cells: CHO cells
T1 sequence (P08172 1-466): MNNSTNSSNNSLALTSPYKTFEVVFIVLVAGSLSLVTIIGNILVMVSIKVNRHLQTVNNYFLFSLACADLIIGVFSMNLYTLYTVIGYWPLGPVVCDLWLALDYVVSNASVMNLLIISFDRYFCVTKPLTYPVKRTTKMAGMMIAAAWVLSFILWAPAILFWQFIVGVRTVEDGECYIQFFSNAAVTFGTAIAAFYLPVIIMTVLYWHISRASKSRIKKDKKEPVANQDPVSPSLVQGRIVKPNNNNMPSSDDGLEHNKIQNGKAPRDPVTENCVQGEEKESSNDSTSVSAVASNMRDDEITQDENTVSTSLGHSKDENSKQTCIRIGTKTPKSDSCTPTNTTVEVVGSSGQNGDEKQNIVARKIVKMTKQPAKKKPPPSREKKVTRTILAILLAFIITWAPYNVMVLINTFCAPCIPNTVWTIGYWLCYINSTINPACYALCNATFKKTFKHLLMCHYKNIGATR
Description: (§1) These tests were performed according to a modification of the method of Hargreaves, et al. (Br. J. Pharmacol. 107: 494-501, 1992). Namely, muscarinic acetylcholine receptors of human m1, m2, m3, m4 and m5 expressed in CHO cells (Receptor Biology, Inc.) were incubated with 0.2 nM [^3H]-N-methylscopolamine (82Ci/mmol, New England Nuclear, Inc.) and a test compound to be tested in 0.5 ml of 50 mM Tris-HCl, 10 mM MgCl2, 1 mM EDTA solution (pH 7.4) for 120 minutes at room temperature (about 20-25° C.), followed by suction filtration over a glass filter (UniFilter plate-GF/C; Packard). Then the filter was washed four times with 1 ml of ice-cold Tris-HCl buffer and dried at 50° C. for an hour. After adding a scintillator (Microscinti 0; Packard), the radioactivity of [^3H]-N-methylscopolamine binding to the filter was counted with a microplate scintillation counter (TopCount™; Packard). Non-specific receptor binding of [^3H]-N-methylscopolamine was measured by adding 1 μM N-methylscopolamine.

[2] = molecular target: T2, human m3 muscarinic acetylcholine receptor expressed in CHO cells (Homo sapiens, UniProt P20309); test: Inhibition of [3H]-N-methylscopolamine binding to muscarinic m3 receptor; conditions: for pKi: human m3 in CHO cells, 0.2 nM [3H]-N-methylscopolamine; for Selectivity m1/m3: ratio of Ki m1 to Ki m3; for Selectivity m2/m3: ratio of Ki m2 to Ki m3; for Selectivity m4/m3: ratio of Ki m4 to Ki m3; for Selectivity m5/m3: ratio of Ki m5 to Ki m3
T2 construct: purchased Receptor Biology, Inc; host or cells: CHO cells
T2 sequence (P20309 whole entry): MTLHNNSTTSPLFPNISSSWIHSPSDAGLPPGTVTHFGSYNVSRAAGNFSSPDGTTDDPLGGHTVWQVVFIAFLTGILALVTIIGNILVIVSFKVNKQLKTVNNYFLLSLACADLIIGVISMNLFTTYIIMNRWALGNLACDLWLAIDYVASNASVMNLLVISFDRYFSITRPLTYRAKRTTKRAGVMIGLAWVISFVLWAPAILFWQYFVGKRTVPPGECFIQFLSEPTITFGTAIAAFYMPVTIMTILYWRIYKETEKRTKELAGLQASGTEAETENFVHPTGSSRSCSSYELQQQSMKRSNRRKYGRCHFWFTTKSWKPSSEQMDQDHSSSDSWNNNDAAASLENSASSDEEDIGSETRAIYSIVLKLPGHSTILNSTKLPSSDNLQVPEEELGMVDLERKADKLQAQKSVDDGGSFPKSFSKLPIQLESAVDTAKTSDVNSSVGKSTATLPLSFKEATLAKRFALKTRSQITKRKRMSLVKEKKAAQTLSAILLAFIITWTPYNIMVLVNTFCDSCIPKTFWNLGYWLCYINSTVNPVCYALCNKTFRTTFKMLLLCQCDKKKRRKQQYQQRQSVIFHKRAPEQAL
Description: as §1

[3] = molecular target: T3, human m5 muscarinic acetylcholine receptor expressed in CHO cells (Homo sapiens, UniProt P08912); test: Inhibition of [3H]-N-methylscopolamine binding to muscarinic m5 receptor; conditions: 0.2 nM [3H]-N-methylscopolamine
T3 construct: purchased Receptor Biology, Inc; host or cells: CHO cells
T3 sequence (P08912 1-532): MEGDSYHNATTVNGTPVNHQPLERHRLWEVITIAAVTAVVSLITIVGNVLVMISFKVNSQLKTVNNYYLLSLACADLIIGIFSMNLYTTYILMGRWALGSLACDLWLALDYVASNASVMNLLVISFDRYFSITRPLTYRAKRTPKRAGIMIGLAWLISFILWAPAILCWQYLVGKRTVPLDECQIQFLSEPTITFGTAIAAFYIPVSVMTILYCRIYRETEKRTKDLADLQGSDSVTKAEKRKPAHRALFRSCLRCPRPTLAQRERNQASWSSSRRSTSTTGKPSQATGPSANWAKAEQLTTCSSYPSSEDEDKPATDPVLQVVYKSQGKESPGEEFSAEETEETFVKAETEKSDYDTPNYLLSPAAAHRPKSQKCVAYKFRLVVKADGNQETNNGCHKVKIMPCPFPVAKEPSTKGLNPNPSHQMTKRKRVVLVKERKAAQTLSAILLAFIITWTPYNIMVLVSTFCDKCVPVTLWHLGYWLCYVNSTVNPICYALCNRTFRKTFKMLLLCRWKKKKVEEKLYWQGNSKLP
Description: as §1

[4] = molecular target: T4, human m4 muscarinic acetylcholine receptor expressed in CHO cells (Homo sapiens, UniProt P08173); test: Inhibition of [3H]-N-methylscopolamine binding to muscarinic m4 receptor; conditions: 0.2 nM [3H]-N-methylscopolamine
T4 construct: purchased Receptor Biology, Inc; host or cells: CHO cells
T4 sequence (P08173 1-479): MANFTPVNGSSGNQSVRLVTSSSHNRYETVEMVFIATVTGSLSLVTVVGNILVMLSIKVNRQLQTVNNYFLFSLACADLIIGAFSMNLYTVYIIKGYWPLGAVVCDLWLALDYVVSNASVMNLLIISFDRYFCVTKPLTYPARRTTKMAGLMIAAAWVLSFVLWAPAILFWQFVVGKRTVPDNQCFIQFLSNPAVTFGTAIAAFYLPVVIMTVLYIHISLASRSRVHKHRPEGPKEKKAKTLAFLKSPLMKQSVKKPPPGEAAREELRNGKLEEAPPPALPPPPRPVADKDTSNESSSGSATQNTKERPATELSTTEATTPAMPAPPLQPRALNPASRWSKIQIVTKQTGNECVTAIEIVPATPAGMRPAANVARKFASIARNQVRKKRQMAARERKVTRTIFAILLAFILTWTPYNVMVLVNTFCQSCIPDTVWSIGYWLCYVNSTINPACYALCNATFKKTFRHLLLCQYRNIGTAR
Description: as §1

[5] = molecular target: T5, human m1 muscarinic acetylcholine receptor expressed in CHO cells (Homo sapiens, UniProt P11229); test: Inhibition of [3H]-N-methylscopolamine binding to muscarinic m1 receptor; conditions: 0.2 nM [3H]-N-methylscopolamine
T5 construct: purchased Receptor Biology, Inc; host or cells: CHO cells
T5 sequence (P11229 1-460): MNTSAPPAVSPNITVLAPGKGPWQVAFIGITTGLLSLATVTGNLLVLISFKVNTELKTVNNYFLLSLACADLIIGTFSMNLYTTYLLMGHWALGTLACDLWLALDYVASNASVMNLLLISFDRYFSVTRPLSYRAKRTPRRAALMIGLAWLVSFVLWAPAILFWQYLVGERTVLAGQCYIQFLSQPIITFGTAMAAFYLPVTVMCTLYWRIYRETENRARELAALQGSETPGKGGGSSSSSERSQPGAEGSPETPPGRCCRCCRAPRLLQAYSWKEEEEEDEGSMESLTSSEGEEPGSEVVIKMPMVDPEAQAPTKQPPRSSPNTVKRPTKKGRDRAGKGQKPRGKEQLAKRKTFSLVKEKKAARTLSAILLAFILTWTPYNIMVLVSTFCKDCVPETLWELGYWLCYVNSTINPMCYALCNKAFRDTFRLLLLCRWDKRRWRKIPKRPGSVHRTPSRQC
Description: as §1

M3 receptor = molecular target: T6, M3 receptor (Canis lupus familiaris, UniProt A0A8I3N190); test: Antagonism to M3 receptor: bronchodilation in anesthetized dogs (methacholine provocation test); format: in vivo, beagle dogs; conditions: inhalation of 1 mg/ml for 10 minutes, methacholine threshold four hours after administration
T6 construct: from tissue; host or cells: whole animal, male beagle dogs (in vivo, airway)
T6 sequence (A0A8I3N190 1-590): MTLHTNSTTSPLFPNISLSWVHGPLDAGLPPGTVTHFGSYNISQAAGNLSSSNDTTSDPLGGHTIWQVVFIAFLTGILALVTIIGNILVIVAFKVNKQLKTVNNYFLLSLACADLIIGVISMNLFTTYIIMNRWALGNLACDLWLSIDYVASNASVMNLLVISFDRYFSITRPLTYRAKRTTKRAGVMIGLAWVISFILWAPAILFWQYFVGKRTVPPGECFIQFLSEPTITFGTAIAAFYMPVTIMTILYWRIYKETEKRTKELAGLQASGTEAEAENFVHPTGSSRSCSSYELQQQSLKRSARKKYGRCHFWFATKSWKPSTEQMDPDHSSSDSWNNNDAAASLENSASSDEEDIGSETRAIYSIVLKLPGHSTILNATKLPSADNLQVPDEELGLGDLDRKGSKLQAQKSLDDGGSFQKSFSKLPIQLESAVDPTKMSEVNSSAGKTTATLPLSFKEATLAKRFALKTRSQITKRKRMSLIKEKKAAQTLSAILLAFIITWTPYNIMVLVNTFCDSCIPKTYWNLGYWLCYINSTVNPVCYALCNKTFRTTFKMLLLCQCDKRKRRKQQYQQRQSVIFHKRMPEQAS
Description: The bronchodilation action of inhaled test compound was evaluated by measuring the compounds' inhibitory action on respiratory resistance-increasing reaction induced by a methacholine provocation test. For the experiment, 12 to 36 months old male beagle dogs (weighing 10-15 kg) were used. After being anesthetized by intravenous pentobarbital administration (30 mg/kg), the dogs were intubated cannulae in their trachea. After their respiration became stable, the cannulae were connected with Astograph (TCK-6100H, Chest) and a methacholine provocation test by 3 Hz oscillation method was conducted. […] The methacholine concentration at which the respiratory resistance increased to twice the initial value was recorded as the methacholine reaction threshold value. Before evaluating the test compounds, the methacholine reaction threshold value^1) under no drug treatment was measured at least twice at a week's interval, to select the dogs showing reproducible reaction.
The inhaling administration of each test compound (1 mg/ml) was conducted for 10 minutes under pentobarbital anesthetization (30 mg/kg, i.v.), with the nebulizer in the Astograph. […] The bronchodilator activity (shift value) of each tested compound was determined according to the following equation: […]

SMILES | pKi [1] | pKi [2] | Selectivity m1/m3 [2] | Selectivity m2/m3 [2] | Selectivity m4/m3 [2] | Selectivity m5/m3 [2] | pKi [3] | pKi [4] | pKi [5] | Shift (fold) Airway constriction M3 (M3 receptor)
CCCCCN1CCC[C@H](CNC(=O)CCNC(=O)CNC(=O)CC(c2ccccc2)(c2ccccc2)c2ccccc2)C1 [Example 6, N-{2-(3-{((3R)-1-pentyl-3-piperidyl)methyl}amino-3-oxopropyl)amino-2-oxoethyl}-3,3,3-triphenylpropanamide] | 6.60 | 8.74 | 480 times | 140 times | 37 times | 46 times | 7.09 | 7.18 | 6.07 | –
O=C(CCCCCNC(=O)CC(c1ccccc1)(c1ccccc1)c1ccccc1)NC[C@H]1CCCN(CC2CCCCC2)C1 [Example 28, N-(6-{((3R)-1-cyclohexylmethyl-3-piperidyl)methyl}amino-6-oxohexyl)-3,3,3-triphenylpropanamide] | 7.07 | 8.92 | 110 times | 71 times | 30 times | 180 times | 6.66 | 7.44 | 6.89 | –
CCCCCCC[N+]1(C)CCC[C@H](CNC(=O)CCNC(=O)CNC(=O)CC(c2ccccc2)(c2ccccc2)c2ccccc2)C1.[Br-] (stereo partly drawn) [Example 146, (3R)-1-heptyl-1-methyl-3-({(3-{(2-{(3,3,3-triphenylpropanoyl)amino}acetyl)amino}propanoyl)amino}methyl)piperidinium bromide] | 6.00 | 7.82 | 80 times | 67 times | 24 times | 33 times | 6.31 | 6.44 | 5.92 | –
O=C(NC[C@H]1CCC[N+]2(CCCC2)C1)[C@H]1CCCN1C(=O)[C@@H]1C[C@@H](O)CN1C(=O)CC(c1ccccc1)(c1ccccc1)c1ccccc1.[Cl-] [Example 151, (7R)-7-({({(2R)-1-({(2S,4R)-4-hydroxy-1-(3,3,3-triphenylpropanoyl)-2-pyrrolidinyl}carbonyl)-2-pyrrolidinyl}carbonyl)amino}methyl)-5-azoniaspiro [4.5]decane chloride] | 6.34 | 8.46 | 130 times | 130 times | 21 times | 250 times | 6.05 | 7.13 | 6.35 | >40.0 fold

The remaining compounds from weak to strong by pKi [1], led by results:

pKi [1] | pKi [2] | Selectivity m1/m3 [2] | Selectivity m2/m3 [2] | Selectivity m4/m3 [2] | Selectivity m5/m3 [2] | pKi [3] | pKi [4] | pKi [5] | Shift (fold) Airway constriction M3 (M3 receptor) | SMILES
6.31 | 8.33 | 32 times | 100 times | 66 times | 180 times | 6.07 | 6.51 | 6.82 | – | CC[C@H](C)C[N+]1(CC)CCC[C@@H](CNC(=O)CCCCCNC(=O)CC(c2ccccc2)(c2ccccc2)c2ccccc2)C1.[Cl-] (stereo partly drawn) [Example 150, (3S)-1-ethyl-1-{(2S)-2-methylbutyl}-3-({(6-{(3,3,3-triphenylpropanoyl)amino}hexanoyl)amino}methyl)piperidinium chloride]
6.96 | 8.89 | 85 times | 85 times | 21 times | 180 times | 6.64 | 7.57 | 6.96 | – | CC[N+]1(CC)CCC[C@H](CNC(=O)[C@H]2CCCN2C(=O)[C@@H]2C[C@@H](O)CN2C(=O)CC(c2ccc(Cl)cc2)(c2ccc(Cl)cc2)c2ccc(Cl)cc2)C1.[Cl-] [Example 144, (3R)-1,1-diethyl-3-({({(2R)-1-({(2S,4R)-4-hydroxy-1-{3,3,3-tris-(4-chlorophenyl)propanoyl}-2-pyrrolidinyl}carbonyl)-2-pyrrolidinyl}-carbonyl)amino}methyl)piperidinium chloride]
7.52 | 9.12 | 360 times | 40 times | 11 times | 25 times | 7.72 | 8.09 | 6.57 | – | O=C(CCNC(=O)[C@H](Cc1c[nH]cn1)NC(=O)CC(c1ccccc1)(c1ccccc1)c1ccccc1)NC[C@H]1CCCN(CC2CCCCC2)C1 [Example 19, N-{(1S)-2-(3-{((3R)-1-cyclohexylmethyl-3-piperidyl)methyl}-amino-3-oxopropyl)amino-1-(1H-imidazol-4-ylmethyl)-2-oxoethyl}-3,3,3-triphenylpropanamide]
